Test results reported in ChEMBL document CHEMBL1201862, “PubChem BioAssay data set” (2004).
Calls of active or inactive are those of the source.

What was measured:
[1] = target: NAD-dependent protein deacylase sirtuin-5, mitochondrial (Homo sapiens, UniProt Q9NXA8); assay: SIRT5 desuccinylase inhibitors, dose response, biochemical, fluorescence imaging, cherry-pick, set 5 (AID 720591);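 note: desuccinylation of succinyl peptide AMC substrate read as fluorescence after trypsin release; potency of inhibitors that lower fluorescence and may act on trypsin instead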
[2] = target: SWI/SNF-related matrix-associated actin-dependent regulator of chromatin subfamily A member 2 (Homo sapiens, UniProt P51531); assay: Luminescence-based cell-based high throughput dose response assay to identify activators of the function of SWI/SNF related, matrix associated, actin dependent regulator of chromatin, subfamily a, member 2 (SMARCA2, BRM).; assay type: functional
[3] = Counterscreen for activators of the function of SWI/SNF related, matrix associated, actin dependent regulator of chromatin, subfamily a, member 2 (SMARCA2, BRM): Luminescence-based cell-based high throughput dose response assay to identify non-selective compounds using the VP16 reporter assay.; assay type: functional
[4] = target: T1, DNA repair protein RAD52 homolog (Homo sapiens, UniProt P43351); assay type: functional, biochemical
T1 sequence (P43351 whole entry): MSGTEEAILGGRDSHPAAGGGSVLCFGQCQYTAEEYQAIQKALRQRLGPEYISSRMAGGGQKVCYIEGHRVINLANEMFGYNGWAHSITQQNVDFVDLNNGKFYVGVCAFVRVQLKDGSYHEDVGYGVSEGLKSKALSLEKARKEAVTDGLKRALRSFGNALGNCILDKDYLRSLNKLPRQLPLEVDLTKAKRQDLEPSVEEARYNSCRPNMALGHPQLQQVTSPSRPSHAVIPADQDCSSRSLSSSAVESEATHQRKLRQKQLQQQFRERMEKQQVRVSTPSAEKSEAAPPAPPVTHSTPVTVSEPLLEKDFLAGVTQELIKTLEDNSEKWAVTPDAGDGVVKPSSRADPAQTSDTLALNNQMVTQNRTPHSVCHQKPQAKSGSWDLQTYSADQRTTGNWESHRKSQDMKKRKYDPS

[5] = Luminescence Cell-Based Dose Retest to Confirm Inhibitors of Cancer Stem Cells. [Related pubchem assays (depositor defined):AID2717, AID2721]; assay type: functional; conditions: Homo sapiens
[6] = target: Nonstructural protein 1 (Influenza A virus, UniProt Q194T2); assay type: functional, Influenza A virus (A/California/07/2009(H1N1))
[7] = target: T2, Heat shock factor protein 1 (Mus musculus, UniProt P38532); assay: HSF1 potentiators in luciferase reporter cells, confirmation, cell-based, NIH3T3, luminescence, dose retest (AID 435004); assay type: functional;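 note: stress induced by proteasome inhibitor MG132 added 30 min after compound; luciferase reporter driven by HSF1 response element in NIH3T3 cells; actives raise luminescence as potentiators of the MG132 stress response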
T2 sequence (P38532 whole entry): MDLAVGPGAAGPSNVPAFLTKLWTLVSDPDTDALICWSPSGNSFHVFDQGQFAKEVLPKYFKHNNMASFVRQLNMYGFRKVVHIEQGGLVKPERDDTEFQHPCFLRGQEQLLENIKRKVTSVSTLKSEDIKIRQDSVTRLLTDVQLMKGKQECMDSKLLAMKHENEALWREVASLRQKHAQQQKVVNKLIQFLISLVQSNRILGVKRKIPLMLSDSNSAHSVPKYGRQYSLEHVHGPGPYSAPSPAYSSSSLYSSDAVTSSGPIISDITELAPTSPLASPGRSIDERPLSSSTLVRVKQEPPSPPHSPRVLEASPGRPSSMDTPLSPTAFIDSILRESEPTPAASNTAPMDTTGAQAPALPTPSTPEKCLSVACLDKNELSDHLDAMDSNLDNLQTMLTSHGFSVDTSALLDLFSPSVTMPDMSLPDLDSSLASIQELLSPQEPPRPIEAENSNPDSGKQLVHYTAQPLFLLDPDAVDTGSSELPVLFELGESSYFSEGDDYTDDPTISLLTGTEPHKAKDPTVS

[8] = tested on: Vero; assay: Vero cell cytotoxicity, cytotoxicity control for flavivirus capping enzyme inhibitors (AID 588742); assay type: functional; conditions: Chlorocebus sabaeus
[9] = inhibitors of intracellular T. cruzi replication, confirmation, NIH3T3 host cells, beta-gal luminescence (AID 2044); assay type: functional, cell-based;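 note: intracellular parasites grown in NIH/3T3 mouse fibroblasts as host cells; luminescent beta-galactosidase reporter signal from transgenic T. cruzi replicating inside host cells; inhibitors lower the luminescence signal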
[10] = cytotoxicity toward NIH3T3 fibroblasts, dose response, counter-screen, cell-based, ATP luminescence, mouse fibroblasts (AID 2010); assay type: functional;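 note: cells exposed to compound for about 90 hours before reading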
[11] = cells
[12] = target: T3, Sentrin-specific protease 8 (Homo sapiens, UniProt Q96LD8); assay type: functional
T3 sequence (Q96LD8 whole entry): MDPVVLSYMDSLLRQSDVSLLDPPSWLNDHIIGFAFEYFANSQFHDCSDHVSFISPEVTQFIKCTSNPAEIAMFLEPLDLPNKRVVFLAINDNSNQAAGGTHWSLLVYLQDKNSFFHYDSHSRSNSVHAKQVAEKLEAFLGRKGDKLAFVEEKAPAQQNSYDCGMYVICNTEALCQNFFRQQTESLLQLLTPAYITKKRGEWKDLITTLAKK

[13] = target: T3, Sentrin-specific protease 8; assay type: functional; remark: listed apart in the source
[14] = tested on: BJ; assay: cytotoxicity toward BJ-TERT fibroblasts, dose response, cell-based, RAS-independent, luminescence (AID 1933); assay type: functional; conditions: Homo sapiens
[15] = tested on: BJ; assay: cells; assay type: functional, cell-based; conditions: Homo sapiens
[16] = tested on: BJ; assay: cytotoxicity toward BJ-TERT-LT-ST fibroblasts, dose response, cell-based, RAS-independent, luminescence (AID 1935); assay type: functional; conditions: Homo sapiens;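 note: BJ fibroblasts immortalized with TERT plus LT and ST oncogenes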
[17] = cytotoxicity toward DRD oncogenic fibroblasts, dose response, cell-based, non-viral oncogenic, luminescence (AID 1934); assay type: functional; conditions: Homo sapiens
[18] = tested on: Streptococcus sp. 'group A'; assay: growth inhibition of control SK(-) GAS strain, dose response, counter-screen for streptokinase expression inhibitor project, luminescence, kanamycin, BacTiterGlo, confirmation (AID 1900); assay type: functional, organism-based
[19] = target: T4, Streptokinase A (Streptococcus pyogenes serotype M1, UniProt P10520); assay: S. pyogenes streptokinase expression inhibitors, potency, dose response, plasminogen activation absorbance, OD405 (AID 1914); assay type: functional, Streptococcus pyogenes M1 GAS;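 note: secreted streptokinase activity via plasminogen activation per viability signal from cell pellet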
T4 sequence (P10520 whole entry): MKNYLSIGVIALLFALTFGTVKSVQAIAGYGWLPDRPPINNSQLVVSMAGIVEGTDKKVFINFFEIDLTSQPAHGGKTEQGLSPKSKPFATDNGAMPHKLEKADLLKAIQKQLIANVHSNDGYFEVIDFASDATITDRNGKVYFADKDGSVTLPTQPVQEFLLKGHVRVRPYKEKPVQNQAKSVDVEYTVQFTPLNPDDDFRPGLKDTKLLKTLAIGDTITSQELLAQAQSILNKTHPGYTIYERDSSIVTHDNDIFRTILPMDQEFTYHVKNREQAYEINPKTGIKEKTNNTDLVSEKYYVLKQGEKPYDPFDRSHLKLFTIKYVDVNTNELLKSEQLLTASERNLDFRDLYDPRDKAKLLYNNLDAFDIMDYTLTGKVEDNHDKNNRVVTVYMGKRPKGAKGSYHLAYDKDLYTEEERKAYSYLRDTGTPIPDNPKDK

[20] = tested on: Streptococcus; assay: Group A Streptococcus viability loss, dose response, counter-screen for streptokinase expression inhibitor project, luminescence, BacTiterGlo (AID 1915); assay type: functional, organism-based;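 note: potency for reduction of bacterial viability or growth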
[21] = cytotoxicity in HEK-293T cells, dose response, cytotoxicity control for TCR NF-kB inhibitor project, luminescence, T-cell screen hits (AID 489026); assay type: functional, cell-based;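 note: cells exposed to compound about 14 hours before the viability readout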
[22] = target: Fatty acid synthase (Homo sapiens, UniProt P49327); assay: FAS thioesterase domain inhibitors, dose response, biochemical, kinetic fluorescence intensity (AID 624326); assay type: functional;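 note: rate of fluorescence rise from hydrolysis of a fluorogenic O-methyl fluorescein ester substrate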
[23] = target: T5, Mannose-6-phosphate isomerase (Homo sapiens, UniProt P34949); assay: human PMI inhibitors, high substrate, primary screen, biochemical, fluorescence intensity, high mannose 6-phosphate (AID 1220)
T5 sequence (P34949 whole entry): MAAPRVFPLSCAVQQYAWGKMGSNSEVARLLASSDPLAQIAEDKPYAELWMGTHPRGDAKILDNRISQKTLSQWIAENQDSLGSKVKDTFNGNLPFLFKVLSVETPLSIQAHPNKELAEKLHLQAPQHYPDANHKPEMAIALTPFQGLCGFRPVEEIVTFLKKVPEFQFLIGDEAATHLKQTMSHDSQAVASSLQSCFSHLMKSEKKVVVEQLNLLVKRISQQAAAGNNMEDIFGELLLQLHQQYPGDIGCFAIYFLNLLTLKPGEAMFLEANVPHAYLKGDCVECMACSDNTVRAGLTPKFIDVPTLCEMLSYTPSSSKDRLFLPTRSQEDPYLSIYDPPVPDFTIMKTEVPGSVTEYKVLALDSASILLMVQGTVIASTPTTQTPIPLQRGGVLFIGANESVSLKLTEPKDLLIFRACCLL

[24] = target: T6, Small ubiquitin-related modifier 1 (Homo sapiens, UniProt P63165); assay: inhibitors of SUMO1 peptide binding, dose response, biochemical, fluorescence polarization, uHTS hits (AID 624382); assay type: functional; conditions: read-out: IC50_Mean
[25] = target: T6, Small ubiquitin-related modifier 1; assay: inhibitors of SUMO1 partner interactions, dose response, biochemical, FRET (AID 624383); assay type: functional; conditions: read-out: IC50_Mean
[26] = intracellular Trypanosoma cruzi inhibitors in host cells – cell-based, plate reader, cherry-pick samples, set 3, dose response (AID 651818); assay type: functional;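 note: compounds incubated with infected cells for about four days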
[27] = Fluorescence-based cell-based high throughput dose response assay for inhibitors of the interaction of nucleotide-binding oligomerization domain containing 2 (NOD2) and the receptor-interacting serine-threonine kinase 2 (RIPK2).; assay type: functional; conditions: Homo sapiens
[28] = target: Paired box protein Pax-8 (Homo sapiens, UniProt Q06710); assay: inhibitors of PAX8-driven TPO luciferase reporter, dose response, RMG-I cells, cherry-pick (AID 687027); assay type: functional, cell-based;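 note: luciferase reporter driven by Pax8 target thyroperoxidase promoter measured by SteadyGlo luminescence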
Sequence of Paired box protein Pax-8 (Q06710 whole entry): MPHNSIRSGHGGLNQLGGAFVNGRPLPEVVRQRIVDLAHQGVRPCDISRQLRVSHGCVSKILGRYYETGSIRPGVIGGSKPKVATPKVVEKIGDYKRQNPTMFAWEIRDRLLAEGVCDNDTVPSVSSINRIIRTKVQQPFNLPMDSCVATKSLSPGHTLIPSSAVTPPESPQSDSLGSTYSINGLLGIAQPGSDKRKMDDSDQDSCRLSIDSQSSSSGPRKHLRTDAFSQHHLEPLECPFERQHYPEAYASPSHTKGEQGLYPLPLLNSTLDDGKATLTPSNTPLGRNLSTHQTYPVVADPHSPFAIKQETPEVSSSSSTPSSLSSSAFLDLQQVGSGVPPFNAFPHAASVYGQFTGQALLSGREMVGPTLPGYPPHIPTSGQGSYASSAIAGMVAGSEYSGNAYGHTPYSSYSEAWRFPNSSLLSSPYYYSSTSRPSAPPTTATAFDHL

Sequence of SWI/SNF-related matrix-associated actin-dependent regulator of chromatin subfamily A member 2 (P51531 whole entry): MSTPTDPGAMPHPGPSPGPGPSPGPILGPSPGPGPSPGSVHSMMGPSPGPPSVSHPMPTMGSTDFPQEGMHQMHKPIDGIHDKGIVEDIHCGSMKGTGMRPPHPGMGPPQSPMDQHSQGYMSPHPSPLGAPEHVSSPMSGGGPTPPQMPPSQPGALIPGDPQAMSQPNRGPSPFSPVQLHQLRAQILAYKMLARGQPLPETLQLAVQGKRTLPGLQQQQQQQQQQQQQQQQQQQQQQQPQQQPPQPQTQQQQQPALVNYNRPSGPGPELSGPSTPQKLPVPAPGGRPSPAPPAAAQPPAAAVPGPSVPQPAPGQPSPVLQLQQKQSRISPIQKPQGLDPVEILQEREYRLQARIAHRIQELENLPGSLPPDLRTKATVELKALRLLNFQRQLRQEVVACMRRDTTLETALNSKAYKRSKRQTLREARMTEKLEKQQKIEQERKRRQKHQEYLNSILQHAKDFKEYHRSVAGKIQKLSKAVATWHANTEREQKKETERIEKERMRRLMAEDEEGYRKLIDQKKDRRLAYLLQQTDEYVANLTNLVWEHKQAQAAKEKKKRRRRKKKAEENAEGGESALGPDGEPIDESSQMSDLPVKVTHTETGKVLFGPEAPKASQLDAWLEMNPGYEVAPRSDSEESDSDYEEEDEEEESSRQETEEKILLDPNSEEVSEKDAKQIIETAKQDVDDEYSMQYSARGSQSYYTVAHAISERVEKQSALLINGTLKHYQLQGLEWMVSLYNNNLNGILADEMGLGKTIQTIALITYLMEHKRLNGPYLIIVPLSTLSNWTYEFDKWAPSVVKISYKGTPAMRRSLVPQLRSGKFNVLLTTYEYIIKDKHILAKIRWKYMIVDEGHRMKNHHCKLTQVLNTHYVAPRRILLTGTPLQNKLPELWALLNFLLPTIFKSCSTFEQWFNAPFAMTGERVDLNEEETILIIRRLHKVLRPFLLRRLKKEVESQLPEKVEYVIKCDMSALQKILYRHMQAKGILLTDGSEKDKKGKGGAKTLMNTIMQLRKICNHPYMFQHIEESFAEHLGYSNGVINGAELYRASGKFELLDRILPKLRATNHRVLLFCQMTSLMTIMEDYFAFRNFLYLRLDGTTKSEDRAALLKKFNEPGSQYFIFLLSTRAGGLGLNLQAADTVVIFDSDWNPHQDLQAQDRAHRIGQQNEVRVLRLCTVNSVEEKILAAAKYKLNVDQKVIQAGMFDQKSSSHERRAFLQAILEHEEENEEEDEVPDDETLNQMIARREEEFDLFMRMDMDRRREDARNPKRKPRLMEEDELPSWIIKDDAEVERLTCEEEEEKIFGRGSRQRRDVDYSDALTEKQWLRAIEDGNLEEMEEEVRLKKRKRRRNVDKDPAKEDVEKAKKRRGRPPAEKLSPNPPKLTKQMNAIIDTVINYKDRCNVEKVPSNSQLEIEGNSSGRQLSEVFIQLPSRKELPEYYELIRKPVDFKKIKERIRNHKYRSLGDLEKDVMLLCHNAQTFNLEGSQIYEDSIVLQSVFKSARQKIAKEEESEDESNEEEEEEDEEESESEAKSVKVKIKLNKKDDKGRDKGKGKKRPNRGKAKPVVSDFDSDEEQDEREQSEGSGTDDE
Sequence of NAD-dependent protein deacylase sirtuin-5, mitochondrial (Q9NXA8 whole entry): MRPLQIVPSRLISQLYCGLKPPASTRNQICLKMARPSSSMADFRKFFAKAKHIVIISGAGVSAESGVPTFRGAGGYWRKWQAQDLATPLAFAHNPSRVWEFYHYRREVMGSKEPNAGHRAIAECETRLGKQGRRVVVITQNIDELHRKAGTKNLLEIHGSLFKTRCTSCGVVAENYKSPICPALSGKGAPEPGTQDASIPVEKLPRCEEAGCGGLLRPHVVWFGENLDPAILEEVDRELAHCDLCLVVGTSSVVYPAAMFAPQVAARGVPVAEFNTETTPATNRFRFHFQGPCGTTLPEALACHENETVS
T6 sequence (P63165 whole entry): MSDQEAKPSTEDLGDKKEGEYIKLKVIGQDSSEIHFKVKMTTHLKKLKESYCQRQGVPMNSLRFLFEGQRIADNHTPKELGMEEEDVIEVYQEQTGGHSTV
Sequence of Fatty acid synthase (P49327 whole entry, the tested form may be a part): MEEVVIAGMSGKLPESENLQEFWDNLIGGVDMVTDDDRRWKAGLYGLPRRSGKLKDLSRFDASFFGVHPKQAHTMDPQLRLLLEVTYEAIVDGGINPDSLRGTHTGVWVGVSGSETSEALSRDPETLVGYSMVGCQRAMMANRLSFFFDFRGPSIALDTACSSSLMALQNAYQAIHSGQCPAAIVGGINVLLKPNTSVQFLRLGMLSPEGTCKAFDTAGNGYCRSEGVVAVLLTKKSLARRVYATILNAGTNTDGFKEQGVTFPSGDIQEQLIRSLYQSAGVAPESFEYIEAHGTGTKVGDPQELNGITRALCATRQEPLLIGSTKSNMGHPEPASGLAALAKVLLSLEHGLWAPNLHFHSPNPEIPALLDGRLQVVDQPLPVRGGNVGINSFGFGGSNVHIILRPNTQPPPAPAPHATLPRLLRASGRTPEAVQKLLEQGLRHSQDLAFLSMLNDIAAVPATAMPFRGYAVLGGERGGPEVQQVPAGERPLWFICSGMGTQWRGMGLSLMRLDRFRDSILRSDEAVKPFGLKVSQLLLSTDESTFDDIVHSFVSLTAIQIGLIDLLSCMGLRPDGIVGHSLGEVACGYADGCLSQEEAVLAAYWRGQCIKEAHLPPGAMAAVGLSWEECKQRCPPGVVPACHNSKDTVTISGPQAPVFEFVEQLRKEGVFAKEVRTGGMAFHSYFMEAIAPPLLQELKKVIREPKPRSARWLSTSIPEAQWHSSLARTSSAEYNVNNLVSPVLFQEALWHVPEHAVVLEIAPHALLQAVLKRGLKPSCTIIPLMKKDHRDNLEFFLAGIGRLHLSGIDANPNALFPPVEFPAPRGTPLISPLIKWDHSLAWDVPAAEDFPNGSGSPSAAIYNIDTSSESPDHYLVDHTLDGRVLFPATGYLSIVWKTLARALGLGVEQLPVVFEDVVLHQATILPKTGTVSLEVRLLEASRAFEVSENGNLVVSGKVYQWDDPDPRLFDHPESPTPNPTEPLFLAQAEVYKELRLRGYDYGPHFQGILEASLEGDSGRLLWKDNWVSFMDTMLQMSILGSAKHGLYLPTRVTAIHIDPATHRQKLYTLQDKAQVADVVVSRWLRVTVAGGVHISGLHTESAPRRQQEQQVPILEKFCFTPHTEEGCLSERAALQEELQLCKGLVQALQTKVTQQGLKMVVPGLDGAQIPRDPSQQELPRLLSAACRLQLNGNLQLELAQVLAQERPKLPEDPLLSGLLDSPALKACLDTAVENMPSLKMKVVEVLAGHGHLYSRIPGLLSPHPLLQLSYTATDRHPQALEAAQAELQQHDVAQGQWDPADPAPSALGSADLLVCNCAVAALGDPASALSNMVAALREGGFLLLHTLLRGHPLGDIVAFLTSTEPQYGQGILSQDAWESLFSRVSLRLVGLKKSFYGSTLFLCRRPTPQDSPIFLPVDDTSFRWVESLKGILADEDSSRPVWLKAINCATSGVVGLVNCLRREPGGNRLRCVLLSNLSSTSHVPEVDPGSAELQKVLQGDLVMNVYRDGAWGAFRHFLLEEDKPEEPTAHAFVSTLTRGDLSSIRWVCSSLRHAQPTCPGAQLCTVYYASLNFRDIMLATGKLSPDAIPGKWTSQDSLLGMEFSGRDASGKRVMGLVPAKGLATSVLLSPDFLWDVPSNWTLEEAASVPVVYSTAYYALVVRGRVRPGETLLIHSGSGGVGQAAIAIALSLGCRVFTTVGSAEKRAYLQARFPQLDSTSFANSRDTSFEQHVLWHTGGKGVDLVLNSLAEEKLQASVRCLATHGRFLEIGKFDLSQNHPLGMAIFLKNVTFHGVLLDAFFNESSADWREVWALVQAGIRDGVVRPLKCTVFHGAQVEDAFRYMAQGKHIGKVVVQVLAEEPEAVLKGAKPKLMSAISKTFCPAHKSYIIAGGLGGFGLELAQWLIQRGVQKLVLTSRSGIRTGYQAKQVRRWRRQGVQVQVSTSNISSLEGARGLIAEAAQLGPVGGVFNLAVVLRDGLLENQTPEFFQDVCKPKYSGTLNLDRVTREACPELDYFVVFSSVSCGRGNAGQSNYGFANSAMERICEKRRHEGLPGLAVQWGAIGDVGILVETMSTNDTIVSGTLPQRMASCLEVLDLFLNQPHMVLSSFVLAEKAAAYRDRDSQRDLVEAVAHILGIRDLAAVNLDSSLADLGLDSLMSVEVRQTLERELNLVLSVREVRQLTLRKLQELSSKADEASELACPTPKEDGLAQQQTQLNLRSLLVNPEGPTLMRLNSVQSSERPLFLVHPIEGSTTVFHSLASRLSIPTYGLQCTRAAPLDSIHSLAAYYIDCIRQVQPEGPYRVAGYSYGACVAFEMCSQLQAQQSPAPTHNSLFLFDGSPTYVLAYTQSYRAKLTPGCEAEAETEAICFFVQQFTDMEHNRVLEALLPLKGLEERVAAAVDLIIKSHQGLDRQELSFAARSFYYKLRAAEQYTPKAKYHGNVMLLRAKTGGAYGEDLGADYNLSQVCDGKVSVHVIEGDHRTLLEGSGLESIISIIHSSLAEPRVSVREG

SMILES: CC(=O)c1ccc(OC(=O)Cc2cccc3ccccc23)cc1
- AC50 [1]: 10.4 µM (active)

SMILES: COc1ccc2sc3cccc(NCCN(C)C)c3c(=O)c2c1
- EC50 [2]: > 10.1 µM (inactive)
- EC50 [3]: > 91.2 µM (inactive)
- AC50 [4]: 0.683 µM (active)

SMILES: O=C/C=C/c1c(-c2ccccc2)cc2oc3ccccc3cc1-2
- AC50 [5]: 10.4 µM (active)
- IC50 [6]: 37.1 µM (active)
- EC50 [7]: > 260 µM (inactive)
- CC50 [8]: > 40 µM (active)

SMILES: O=C(N/N=C/c1ccc([N+](=O)[O-])o1)c1cn(-c2ccccc2)nc1-c1ccc(Cl)cc1
- EC50 [9]: < 0.1 µM (active)
- EC50 [10]: > 30 µM (not active)
- EC50 [11]: 0.028 µM (active)

SMILES: NS(=O)(=O)c1ccc(CCNC(=O)COC(=O)c2ccc([N+](=O)[O-])o2)cc1
- IC50 [12]: 6.46 µM (active)
- IC50 [13]: 9.2 µM (active)

SMILES: O=C1C=CC(=O)N1c1ccc(Sc2ccc([N+](=O)[O-])cc2)cc1
- EC50 [14]: 7.87 µM (active)
- EC50 [15]: 21 µM (active)
- EC50 [16]: > 75 µM (inconclusive)
- EC50 [17]: 24.7 µM (active)

SMILES: Cc1cc(CNC(=O)Cc2c(F)cccc2Cl)nn1C
- AC50 [1]: > 30 µM (inactive)

SMILES: CC1CC(C)CN(CCOCCSc2ccccc2)C1 (centres undefined)
- EC50 [9]: < 0.1 µM (active)
- EC50 [10]: > 60 µM (inconclusive)
- EC50 [11]: 0.09 µM (active)

SMILES: COC(=O)c1cnc(Oc2ccc(NC(=O)NC(=O)c3c(F)cccc3Cl)cc2)cc1C(F)(F)F
- EC50 [18]: 49 µM (active)
- EC50 [14]: 1.08 µM (active)
- EC50 [19]: 1.95 µM (active)
- EC50 [15]: 36.1 µM (inconclusive)
- EC50 [16]: 19.9 µM (active)
- EC50 [17]: 3.69 µM (inconclusive)
- EC50 [20]: > 150 µM (not active)
- IC50 [21]: > 80 µM (inactive)

SMILES: COc1ccc(NC(=O)CC2C(=O)N(C)C(=S)N2Cc2cccs2)cc1 (centres undefined)
- IC50 [22]: 15.8 µM (active)

SMILES: Cc1nc2c(Cl)cccc2c(O)c1CN1CCCCCC1
- EC50 [9]: < 0.1 µM (active)
- EC50 [10]: > 60 µM (not active)
- EC50 [11]: 0.046 µM (active)

SMILES: Cc1cccc(-n2c(SCC(N)=O)nnc2-c2ccco2)c1
- AC50 [1]: > 30 µM (inactive)

SMILES: CN1CCN(c2ccc(C(=O)c3ccc(Br)cc3)cc2[N+](=O)[O-])CC1
- EC50 [14]: > 150 µM (not active)
- EC50 [15]: > 150 µM (not active)
- EC50 [16]: > 150 µM (not active)
- EC50 [17]: > 150 µM (not active)

SMILES: COc1cc(C(=O)NNC(=O)C2CCC2)cc(OC)c1OC
- AC50 [1]: 29.9 µM (active)

SMILES: CN(C)/C=N/c1c(Br)cc(Br)c2nonc12
- IC50 [23]: > 50 µM (not active)
- IC50 [12]: 21.3 µM (active)
- IC50 [13]: 10.2 µM (active)

SMILES: CCN(CC)CCNC(=O)C(Cl)=C1C(Cl)=C(Cl)C(Cl)=C1Cl
- EC50 [2]: > 91.2 µM (inactive)
- EC50 [3]: > 91.2 µM (inactive)

SMILES: COc1ccc(C(=O)Nc2ccccc2C(=O)NC(Cc2ccc(O)cc2)C(=O)NNC(=O)c2ccc(C)cc2)cc1 (centres undefined)
- IC50 [24]: > 66.6 µM (inactive)
- IC50 [25]: 2.32 µM (active)

SMILES: Cc1cc(NC(=O)c2ccco2)ncc1NC(=O)Cc1ccccc1
- EC50 [2]: > 91.2 µM (inactive)
- EC50 [3]: > 91.2 µM (inactive)

SMILES: C[C@H](CO)N1C[C@H](C)[C@@H](CN(C)CC2CCCCC2)Oc2c(NC(=O)Nc3ccc(C(F)(F)F)cc3)cccc2C1=O
- AC50 [26]: 3.48 µM (active)

SMILES: C[C@H](CO)N1C[C@H](C)[C@H](CN(C)Cc2ccc(-c3ccccc3)cc2)Oc2ccc(NC(=O)Nc3ccc(C(F)(F)F)cc3)cc2CC1=O
- AC50 [26]: 2.21 µM (active)

SMILES: C[C@@H]1CN([C@@H](C)CO)C(=O)Cc2cc(NC(=O)Nc3ccccc3)ccc2O[C@@H]1CN(C)Cc1ccc(Cl)c(Cl)c1
- AC50 [26]: 3.92 µM (active)

SMILES: C[C@H](CO)N1C[C@H](C)[C@H](CN(C)Cc2ccc(C(=O)Nc3ccccc3N)cc2)Oc2c(NS(=O)(=O)c3ccccc3)cccc2C1=O
- AC50 [26]: 2.19 µM (active)

SMILES: O=c1ccc2ccccc2c2ccccc12
- IC50 [27]: 6.6 µM (active)
- AC50 [28]: 6.07 µM (active)
